ChEMBL document CHEMBL1909046, “DrugMatrix in vitro pharmacology data”

What was measured:
[1] = biological target: 5-hydroxytryptamine receptor 4 (Cavia porcellus, UniProt O70528); format: cell membranes, Dunkin-Hartley, Striatum, Membrane; also: in other assays of this panel Not Active means under 50% inhibition at 10 µM
[2] = biological target: T1, Cholecystokinin receptor type A (Homo sapiens, UniProt P32238); format: cell membranes, Membrane; conditions: 1321-n1; also: in other assays of this panel Not Active means under 50% inhibition at 10 µM
T1 sequence (P32238 whole entry): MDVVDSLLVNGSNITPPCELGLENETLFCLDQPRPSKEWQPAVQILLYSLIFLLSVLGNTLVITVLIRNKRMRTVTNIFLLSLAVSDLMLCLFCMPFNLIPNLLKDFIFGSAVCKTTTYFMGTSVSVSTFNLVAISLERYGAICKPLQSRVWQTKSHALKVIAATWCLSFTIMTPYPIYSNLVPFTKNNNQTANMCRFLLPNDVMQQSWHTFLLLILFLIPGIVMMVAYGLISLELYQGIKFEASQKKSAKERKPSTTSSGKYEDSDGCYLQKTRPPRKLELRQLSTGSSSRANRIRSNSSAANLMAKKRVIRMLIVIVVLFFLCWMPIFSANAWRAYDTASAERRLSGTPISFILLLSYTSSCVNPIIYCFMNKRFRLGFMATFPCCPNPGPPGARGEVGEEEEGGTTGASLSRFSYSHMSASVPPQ

[3] = biological target: Platelet-activating factor receptor (Homo sapiens, UniProt P25105); experiment: biochemical; format: tissue-based; conditions: platelet; also: in other assays of this panel Not Active means under 50% inhibition at 10 µM
[4] = biological target: Matrix metalloproteinase-9 (Homo sapiens, UniProt P14780); format: cell-based;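 also: inhibition of isolated MMP-9 enzyme activity toward a synthetic peptide substrate, from the DrugMatrix protease screening panel; in other assays of this panel Not Active means under 50% inhibition at 10 µM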
Interstitial collagenase = biological target: T2, Interstitial collagenase (Homo sapiens, UniProt P03956); format: tissue-based, Rheumatoid synovial fibroblasts
T2 sequence (P03956 whole entry): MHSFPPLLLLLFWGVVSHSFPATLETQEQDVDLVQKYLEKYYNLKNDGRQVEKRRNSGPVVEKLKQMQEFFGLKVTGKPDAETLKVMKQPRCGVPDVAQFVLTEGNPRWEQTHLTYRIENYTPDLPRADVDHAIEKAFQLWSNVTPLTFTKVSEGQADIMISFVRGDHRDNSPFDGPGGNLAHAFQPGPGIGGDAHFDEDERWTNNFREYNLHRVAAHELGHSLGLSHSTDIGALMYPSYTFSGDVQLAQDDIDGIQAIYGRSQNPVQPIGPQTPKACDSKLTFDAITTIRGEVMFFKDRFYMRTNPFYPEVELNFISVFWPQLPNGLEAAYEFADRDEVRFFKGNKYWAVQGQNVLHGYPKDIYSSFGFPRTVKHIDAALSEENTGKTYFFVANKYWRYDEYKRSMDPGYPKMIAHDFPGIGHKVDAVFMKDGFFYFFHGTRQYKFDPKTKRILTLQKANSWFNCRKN

[5] = biological target: Prostaglandin G/H synthase 1 (Homo sapiens, UniProt P23219); experiment: biochemical; format: tissue-based, Platelet; conditions: platelet
Mu-type opioid receptor = Mu-type opioid receptor (Homo sapiens, UniProt P35372); experiment: DRUGMATRIX: Opiate mu (OP3, MOP) radioligand binding (ligand: [3H] Diprenorphine); format: cell membranes, CHO-K1, Membrane; conditions: cho-k1; Not Active = under 50% inhibition at 10 µM
[6] = DRUGMATRIX: Phosphodiesterase PDE4 enzyme inhibition (substrate: [3H]cAMP + cAMP); conditions: u-937; Not Active = under 50% inhibition at 10 µM
[7] = biological target: T3, Alpha-2A adrenergic receptor (Homo sapiens, UniProt P08913); format: cell membranes, Sf9, Membrane; conditions: sf9; also: in other assays of this panel Not Active means under 50% inhibition at 10 µM
T3 sequence (P08913 whole entry): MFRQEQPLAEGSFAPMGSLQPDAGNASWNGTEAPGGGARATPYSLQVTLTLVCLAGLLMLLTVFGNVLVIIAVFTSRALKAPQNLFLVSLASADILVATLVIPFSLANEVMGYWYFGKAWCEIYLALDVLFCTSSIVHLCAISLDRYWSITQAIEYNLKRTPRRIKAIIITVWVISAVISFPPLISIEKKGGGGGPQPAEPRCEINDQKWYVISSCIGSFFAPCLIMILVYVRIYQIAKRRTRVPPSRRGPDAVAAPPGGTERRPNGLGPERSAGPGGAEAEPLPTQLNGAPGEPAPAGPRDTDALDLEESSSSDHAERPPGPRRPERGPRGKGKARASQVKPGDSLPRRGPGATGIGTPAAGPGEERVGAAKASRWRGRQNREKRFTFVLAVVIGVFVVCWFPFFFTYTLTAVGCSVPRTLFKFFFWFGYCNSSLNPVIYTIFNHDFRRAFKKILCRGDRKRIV

[8] = DRUGMATRIX: Calcium Channel Type L, Phenylalkylamine radioligand binding (ligand: [3H] (-)-Desmethoxyverapamil (D-888)); format: cell membranes, Rattus norvegicus, Wistar, Brain, Membrane; conditions: Not Active = under 50% inhibition at 10 µM

Matrix metalloproteinase-9, sequence (P14780 whole entry): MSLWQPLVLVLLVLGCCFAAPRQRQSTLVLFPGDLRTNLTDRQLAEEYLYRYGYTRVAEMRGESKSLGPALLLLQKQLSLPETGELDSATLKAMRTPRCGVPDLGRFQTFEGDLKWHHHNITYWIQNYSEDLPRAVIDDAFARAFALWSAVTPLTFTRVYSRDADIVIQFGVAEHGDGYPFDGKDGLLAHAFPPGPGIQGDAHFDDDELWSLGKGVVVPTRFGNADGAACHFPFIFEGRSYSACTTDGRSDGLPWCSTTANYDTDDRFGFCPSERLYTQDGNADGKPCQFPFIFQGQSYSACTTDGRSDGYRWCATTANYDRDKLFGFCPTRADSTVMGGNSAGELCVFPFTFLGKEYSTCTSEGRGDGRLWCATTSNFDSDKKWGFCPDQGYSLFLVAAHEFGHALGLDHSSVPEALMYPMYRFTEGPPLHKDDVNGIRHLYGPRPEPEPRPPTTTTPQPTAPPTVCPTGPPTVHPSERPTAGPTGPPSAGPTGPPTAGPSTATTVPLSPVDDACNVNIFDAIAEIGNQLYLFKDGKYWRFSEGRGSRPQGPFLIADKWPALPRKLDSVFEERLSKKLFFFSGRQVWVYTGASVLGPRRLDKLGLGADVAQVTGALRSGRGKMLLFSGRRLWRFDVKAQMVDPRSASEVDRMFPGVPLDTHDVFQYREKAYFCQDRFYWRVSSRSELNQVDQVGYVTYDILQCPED
5-hydroxytryptamine receptor 4, sequence (O70528 whole entry): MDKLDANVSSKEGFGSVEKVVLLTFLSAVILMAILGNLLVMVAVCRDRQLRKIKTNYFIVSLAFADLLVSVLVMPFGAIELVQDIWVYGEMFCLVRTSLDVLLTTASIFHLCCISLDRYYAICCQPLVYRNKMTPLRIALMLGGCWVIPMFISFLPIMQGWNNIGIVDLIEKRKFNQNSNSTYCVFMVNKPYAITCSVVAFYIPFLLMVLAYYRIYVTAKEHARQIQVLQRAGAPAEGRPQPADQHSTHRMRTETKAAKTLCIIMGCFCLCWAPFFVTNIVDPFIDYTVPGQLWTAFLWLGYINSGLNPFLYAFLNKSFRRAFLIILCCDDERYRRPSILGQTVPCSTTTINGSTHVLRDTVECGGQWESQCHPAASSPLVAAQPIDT
Platelet-activating factor receptor, sequence (P25105 whole entry): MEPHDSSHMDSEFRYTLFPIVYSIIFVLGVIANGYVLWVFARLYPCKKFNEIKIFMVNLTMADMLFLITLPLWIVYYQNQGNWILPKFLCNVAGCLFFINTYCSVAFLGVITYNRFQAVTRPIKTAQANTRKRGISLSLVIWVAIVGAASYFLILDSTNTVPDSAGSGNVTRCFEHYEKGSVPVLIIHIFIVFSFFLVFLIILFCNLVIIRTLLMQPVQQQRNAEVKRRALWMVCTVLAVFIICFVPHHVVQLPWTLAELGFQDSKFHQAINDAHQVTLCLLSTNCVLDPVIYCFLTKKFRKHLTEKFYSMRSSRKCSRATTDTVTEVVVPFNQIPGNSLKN
Prostaglandin G/H synthase 1, sequence (P23219 whole entry): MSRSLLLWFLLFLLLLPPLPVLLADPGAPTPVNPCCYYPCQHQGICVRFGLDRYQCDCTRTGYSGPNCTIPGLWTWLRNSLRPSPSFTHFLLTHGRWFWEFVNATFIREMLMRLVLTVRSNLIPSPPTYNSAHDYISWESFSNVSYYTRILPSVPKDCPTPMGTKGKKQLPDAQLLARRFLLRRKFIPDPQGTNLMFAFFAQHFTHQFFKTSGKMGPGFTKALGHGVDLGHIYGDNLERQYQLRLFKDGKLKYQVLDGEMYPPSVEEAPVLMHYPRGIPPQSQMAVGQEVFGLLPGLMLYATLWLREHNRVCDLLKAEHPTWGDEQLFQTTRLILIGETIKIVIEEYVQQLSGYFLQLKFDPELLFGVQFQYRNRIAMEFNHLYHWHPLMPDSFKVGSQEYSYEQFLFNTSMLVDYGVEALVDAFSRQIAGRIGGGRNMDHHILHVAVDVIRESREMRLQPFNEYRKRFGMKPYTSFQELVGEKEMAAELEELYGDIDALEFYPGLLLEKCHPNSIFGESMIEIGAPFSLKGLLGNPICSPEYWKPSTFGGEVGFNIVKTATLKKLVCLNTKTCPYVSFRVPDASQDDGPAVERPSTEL
Mu-type opioid receptor, sequence (P35372 whole entry): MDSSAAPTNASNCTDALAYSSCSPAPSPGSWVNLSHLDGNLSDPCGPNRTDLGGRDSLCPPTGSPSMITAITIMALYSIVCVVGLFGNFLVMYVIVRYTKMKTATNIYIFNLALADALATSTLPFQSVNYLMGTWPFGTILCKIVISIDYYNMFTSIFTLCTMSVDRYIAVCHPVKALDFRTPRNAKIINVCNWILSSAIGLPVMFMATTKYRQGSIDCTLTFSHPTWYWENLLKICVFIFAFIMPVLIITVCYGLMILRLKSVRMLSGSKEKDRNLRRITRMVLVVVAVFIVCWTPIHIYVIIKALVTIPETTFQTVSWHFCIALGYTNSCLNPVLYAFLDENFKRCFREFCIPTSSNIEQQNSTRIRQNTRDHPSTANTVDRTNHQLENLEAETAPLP

For `C=CC[C@@H]1/C=C(\C)C[C@H](C)C[C@H](OC)[C@H]2O[C@@](O)(C(=O)C(=O)N3CCCC[C@H]3C(=O)O[C@H](/C(C)=C/[C@@H]3CC[C@@H](O)[C@H](OC)C3)[C@H](C)[C@@H](O)CC1=O)[C@H](C)C[C@@H]2OC` [TACROLIMUS ANHYDROUS], the IC50 [1] was “Not Active”, the IC50 [2] was “Not Active” and the IC50 [3] was “Not Active”. For the same compound, the IC50 [4] was “Not Active”, the IC50 (Interstitial collagenase) was “Not Active” and the IC50 [5] was “Not Active”. The IC50 (Mu-type opioid receptor) was “Not Active”, the IC50 [6] was “Not Active” and the Ki [6] was “Not Active”. For the same compound, the IC50 [7] was “Not Active”, the IC50 [8] was “Not Active” and the Ki [8] was “Not Active”.
For `CC1CN(c2cc3c(cc2F)c(=O)c(C(=O)O)cn3-c2ccc(F)cc2F)CCN1` (stereo not drawn) [TEMAFLOXACIN], the IC50 [1] was “Not Active”, the IC50 [2] was “Not Active” and the IC50 [3] was “Not Active”. For the same compound, the IC50 [4] was “Not Active”, the IC50 (Interstitial collagenase) was “Not Active” and the IC50 [5] was “Not Active”. For the same compound, the IC50 (Mu-type opioid receptor) was “Not Active”, the IC50 [6] was “Not Active” and the Ki [6] was “Not Active”. The IC50 [7] was “Not Active”, the IC50 [8] was “Not Active” and the Ki [8] was “Not Active”.
For `CC(C)(C)NCC(O)c1cc(O)cc(O)c1` (stereo not drawn) [TERBUTALINE], the IC50 [1] was “Not Active”, the IC50 [2] was “Not Active” and the IC50 [3] was “Not Active”. For the same compound, the IC50 [4] was “Not Active”, the IC50 (Interstitial collagenase) was “Not Active” and the IC50 [5] was “Not Active”. The IC50 (Mu-type opioid receptor) was “Not Active”, the IC50 [6] was “Not Active” and the Ki [6] was “Not Active”. For the same compound, the IC50 [7] was “Not Active”, the IC50 [8] was “Not Active” and the Ki [8] was “Not Active”.
With `CN(C)[C@@H]1C(O)=C(C(N)=O)C(=O)[C@@]2(O)C(O)=C3C(=O)c4c(O)cccc4[C@@](C)(O)[C@H]3C[C@@H]12` [TETRACYCLINE] the IC50 [1] was “Not Active”, the IC50 [2] was “Not Active” and the IC50 [3] was “Not Active”. For the same compound, the IC50 [4] was “Not Active”, the IC50 (Interstitial collagenase) was “Not Active” and the IC50 [5] was “Not Active”. The IC50 (Mu-type opioid receptor) was “Not Active”, the IC50 [6] was “Not Active” and the Ki [6] was “Not Active”. For the same compound, the IC50 [7] was “Not Active”, the IC50 [8] was “Not Active” and the Ki [8] was “Not Active”.
With `c1ccc2[nH]c(-c3cscn3)nc2c1` [THIABENDAZOLE] the IC50 [1] was “Not Active”, the IC50 [2] was “Not Active” and the IC50 [3] was “Not Active”. For the same compound, the IC50 [4] was “Not Active”, the IC50 (Interstitial collagenase) was “Not Active” and the IC50 [5] was “Not Active”. The IC50 (Mu-type opioid receptor) was “Not Active”, the IC50 [6] was “Not Active” and the Ki [6] was “Not Active”. For the same compound, the IC50 [7] was “Not Active”, the IC50 [8] was “Not Active” and the Ki [8] was “Not Active”.
In the case of `Cc1ccc(C(=O)C(C)CN2CCCCC2)cc1` (stereo not drawn) [TOLPERISONE], the IC50 [1] is reported as “Not Active”, the IC50 [2] is reported as “Not Active” and the IC50 [3] is reported as “Not Active”. The IC50 [4] was “Not Active”, the IC50 (Interstitial collagenase) was “Not Active” and the IC50 [5] was “Not Active”. The IC50 (Mu-type opioid receptor) was “Not Active”, the IC50 [6] was “Not Active” and the Ki [6] was “Not Active”. The IC50 [7] was “Not Active”, the IC50 [8] was “Not Active” and the Ki [8] was “Not Active”.
With `NC(CO)(CO)CO` [TROMETHAMINE] the IC50 [1] was “Not Active”, the IC50 [2] was “Not Active” and the IC50 [3] was “Not Active”. The IC50 [4] was “Not Active”, the IC50 (Interstitial collagenase) was “Not Active” and the IC50 [5] was “Not Active”. For the same compound, the IC50 (Mu-type opioid receptor) was “Not Active”, the IC50 [6] was “Not Active” and the Ki [6] was “Not Active”. For the same compound, the IC50 [7] was “Not Active”, the IC50 [8] was “Not Active” and the Ki [8] was “Not Active”.
In the case of `CN1[C@@H]2CC[C@H]1C[C@@H](OC(=O)c1c[nH]c3ccccc13)C2` [TROPISETRON], the IC50 ([1]; read-out: IC50) is reported as 324 nM, the Ki ([1]; read-out: Ki) is reported as 54 nM and the IC50 [2] is reported as “Not Active”. The IC50 [3] was “Not Active”, the IC50 [4] was “Not Active” and the IC50 (Interstitial collagenase) was “Not Active”. For the same compound, the IC50 [5] was “Not Active”, the IC50 (Mu-type opioid receptor) was “Not Active” and the IC50 [6] was “Not Active”. The Ki [6] was “Not Active”, the IC50 [7] was “Not Active” and the IC50 [8] was “Not Active”. The Ki [8] was “Not Active”.
In the case of `COc1cc(C(=O)NC2CCCNC2)cc(OC)c1OC` (stereo not drawn) [TROXIPIDE], the IC50 [1] is reported as “Not Active”, the IC50 [2] is reported as “Not Active” and the IC50 [3] is reported as “Not Active”. The IC50 [4] was “Not Active”, the IC50 (Interstitial collagenase) was “Not Active” and the IC50 [5] was “Not Active”. The IC50 (Mu-type opioid receptor) was “Not Active”, the IC50 [6] was “Not Active” and the Ki [6] was “Not Active”. The IC50 [7] was “Not Active”, the IC50 [8] was “Not Active” and the Ki [8] was “Not Active”.
For `CC(C)[C@H](N)C(=O)OCCOCn1cnc2c(=O)nc(N)[nH]c21` [VALACYCLOVIR], the IC50 [1] was “Not Active”, the IC50 [2] was “Not Active” and the IC50 [3] was “Not Active”. For the same compound, the IC50 [4] was “Not Active”, the IC50 (Interstitial collagenase) was “Not Active” and the IC50 [5] was “Not Active”. The IC50 (Mu-type opioid receptor) was “Not Active”, the IC50 [6] was “Not Active” and the Ki [6] was “Not Active”. For the same compound, the IC50 [7] was “Not Active”, the IC50 [8] was “Not Active” and the Ki [8] was “Not Active”.
For `CN[C@H](CC(C)C)C(=O)N[C@H]1C(=O)N[C@@H](CC(N)=O)C(=O)N[C@H]2C(=O)N[C@H]3C(=O)N[C@H](C(=O)N[C@H](C(=O)O)c4cc(O)cc(O)c4-c4cc3ccc4O)[C@H](O)c3ccc(c(Cl)c3)Oc3cc2cc(c3O[C@@H]2O[C@H](CO)[C@@H](O)[C@H](O)[C@H]2O[C@H]2C[C@](C)(N)[C@H](O)[C@H](C)O2)Oc2ccc(cc2Cl)[C@H]1O` [VANCOMYCIN], the IC50 [1] was “Not Active”, the IC50 [2] was “Not Active” and the IC50 [3] was “Not Active”. For the same compound, the IC50 [4] was “Not Active”, the IC50 (Interstitial collagenase) was “Not Active” and the IC50 [5] was “Not Active”. For the same compound, the IC50 (Mu-type opioid receptor) was “Not Active”, the IC50 [6] was “Not Active” and the Ki [6] was “Not Active”. The IC50 [7] was “Not Active”, the IC50 [8] was “Not Active” and the Ki [8] was “Not Active”.
